Series [1] concerns Puccinia recondita f. sp. tritici. Description: Fungicidal activity against Puccinia recondita f. sp. tritici / wheat / leaf disc preventative (brown rust). Type of series: in vivo. The note with it: foliar, wheat leaf segments, preventative (inoculated 1 day after application), compared to untreated control. As for the experimental part: (§1) Leaf disks or leaf segments of various plant species are cut from plants grown in a greenhouse. The cut leaf disks or segments are placed in multiwell plates (24-well format) onto water agar. The leaf disks are sprayed with a test solution before (preventative) or after (curative) inoculation. Compounds to be tested are prepared as DMSO solutions (max. 10 mg/ml) which are diluted to the appropriate concentration with 0.025% Tween20 just before spraying. The inoculated leaf disks or segments are incubated under defined conditions (temperature, relative humidity, light, etc.) according to the respective test system. A single evaluation of disease level is carried out 3 to 14 days after inoculation, depending on the pathosystem. Percent disease control relative to the untreated check leaf disks or segments is then calculated.
(§2) Wheat leaf segments cv. Kanzler are placed on agar in multiwell plates (24-well format) and sprayed with the formulated test compound diluted in water. The leaf disks are inoculated with a spore suspension of the fungus 1 day after application. The inoculated leaf segments are incubated at 19° C. and 75% rh under a light regime of 12 h light/12 h darkness in a climate cabinet and the activity of a compound is assessed as percent disease control compared to untreated when an appropriate level of disease damage appears in untreated check leaf segments (7-9 days after application).

Series [2] shares this test system. Description: Fungicidal activity against Puccinia recondita f. sp. tritici / wheat / leaf disc curative (brown rust). Type of series: in vivo. The settings on record: foliar, 24 h, wheat leaf segments, curative (applied 1 day after inoculation), compared to untreated control. Here is the method:
as §1
as §2, with “format).” for “format) and sprayed with the formulated test compound diluted in water.”, “segments” for “disks”, “fungus. Plates are stored in darkness at 19° C. and 75% rh. The formulated test compound diluted in water is applied” for “fungus”, “inoculation.” for “application.”, “The” for “The inoculated”, “(6-8” for “(7-9”

Series [3] concerns Phakopsora pachyrhizi. Description: Fungicidal activity against Phakopsora pachyrhizi / soybean / leaf disc preventative (Asian soybean rust). The format is in vivo. The settings on record: foliar, soybean leaf disks, compared to untreated control. As for the experimental part:
as §1
Soybean leaf disks are placed on water agar in multiwell plates (24-well format) and sprayed with the formulated test compound diluted in water. One day after application leaf discs are inoculated by spraying a spore suspension on the lower leaf surface. After an incubation period in a climate cabinet of 24-36 hours in darkness at 20° C. and 75% rh leaf disc are kept at 20° C. with 12 h light/day and 75% rh. The activity of a compound is assessed as percent disease control compared to untreated when an appropriate level of disease damage appears in untreated check leaf disks (12-14 days after application).

In series [4] the test system is Glomerella lagenarium (Colletotrichum lagenarium). As to the kind of experiment: Fungicidal activity against Glomerella lagenarium (Colletotrichum lagenarium) liquid culture / cucumber / preventative (anthracnose). The note with it: Colletotrichum orbiculare, liquid culture (PDB), growth inhibition measured photometrically 3-4 days after application, compared to untreated control. The format is cell-based. Here is the method:
Mycelia fragments or conidia suspensions of a fungus prepared either freshly from liquid cultures of the fungus or from cryogenic storage, are directly mixed into nutrient broth. DMSO solutions of the test compound (max. 10 mg/ml) are diluted with 0.025% Tween20 by a factor of 50 and 10 µl of this solution is pipetted into a microtiter plate (96-well format). The nutrient broth containing the fungal spores/mycelia fragments is then added to give an end concentration of the tested compound. The test plates are incubated in the dark at 24° C. and 96% relative humidity. The inhibition of fungal growth is determined photometrically after 2 to 7 days, depending on the pathosystem, and percent antifungal activity relative to the untreated check is calculated.
Conidia of the fungus from cryogenic storage are directly mixed into nutrient broth (PDB potato dextrose broth). After placing a (DMSO) solution of test compound into a microtiter plate (96-well format), the nutrient broth containing the fungal spores is added. The test plates are incubated at 24° C. and the inhibition of growth is measured photometrically 3-4 days after application.

Molecules are shown by their SMILES.

Take `O=S1(=O)C=CCN1Cc1ccc(-c2noc(C(F)(F)F)n2)cc1` [Compound A-1, 2-[[4-[5-(trifluoromethyl)-1,2,4-oxadiazol-3-yl]phenyl]methyl]-3H-isothiazole 1,1-dioxide]: the pest or weed control at 200 ppm in series [1], in series [2] and in series [3] was at least 80% each time. In series [4], this molecule gave an inhibition of growth at 20 ppm of at least 80%.

Turning to `CC(=O)n1ccc(=O)n1Cc1ccc(-c2noc(C(F)(F)F)n2)cc1` [Compound A-2, 1-acetyl-2-[[4-[5-(trifluoromethyl)-1,2,4-oxadiazol-3-yl]phenyl]methyl]pyrazol-3-one], the pest or weed control at 200 ppm in series [1], in series [2] and in series [3] was at least 80% in each case. This molecule also returned an inhibition of growth at 20 ppm in series [4] of at least 80%.

`COc1c(-c2c(C)cc(C)cc2C)c(=O)n(Cc2ccc(-c3noc(C(F)(F)F)n3)cc2)n1C` [Compound A-3, 5-methoxy-1-methyl-2-[[4-[5-(trifluoromethyl)-1,2,4-oxadiazol-3-yl]phenyl]methyl]-4-(2,4,6-trimethylphenyl)pyrazol-3-one]: the pest or weed control at 200 ppm in series [3] is at least 80%. The same molecule yielded an inhibition of growth at 20 ppm in series [4] of at least 80%.

As for `O=c1ccn(-c2ccc(Cl)cc2)n1Cc1ccc(-c2noc(C(F)(F)F)n2)cc1` [Compound A-4, 1-(4-chlorophenyl)-2-[[4-[5-(trifluoromethyl)-1,2,4-oxadiazol-3-yl]phenyl]methyl]pyrazol-3-one], the pest or weed control at 200 ppm in series [1] and in series [3] was at least 80% in each case.

As for `CC(c1ccc(-c2noc(C(F)(F)F)n2)cc1)n1nnn(C)c1=O` (stereo not shown) [Compound B-1, 1-methyl-4-[1-[4-[5-(trifluoromethyl)-1,2,4-oxadiazol-3-yl]phenyl]ethyl]tetrazol-5-one], the pest or weed control at 200 ppm in series [1], in series [2] and in series [3] was at least 80% each time. Also, in series [4], the inhibition of growth at 20 ppm was at least 80%.

Consider `O=c1sc(-c2ccccc2)nn1Cc1ccc(-c2noc(C(F)(F)F)n2)cc1` [Compound B-2, 5-phenyl-3-[[4-[5-(trifluoromethyl)-1,2,4-oxadiazol-3-yl]phenyl]methyl]-1,3,4-thiadiazol-2-one], for which the melting point was 111.1 to 114 °C. In addition, the inhibition of growth at 20 ppm in series [4] was at least 80%.

`Cc1nn(Cc2ccc(-c3noc(C(F)(F)F)n3)cc2)c(=O)o1` [Compound B-3, 5-methyl-3-[[4-[5-(trifluoromethyl)-1,2,4-oxadiazol-3-yl]phenyl]methyl]-1,3,4-oxadiazol-2-one] registered a melting point of 133.8 to 136 °C. The same molecule returned a pest or weed control at 200 ppm in series [1] of at least 80%. Further, the pest or weed control at 200 ppm in series [2] was at least 80%. The pest or weed control at 200 ppm in series [3] is at least 80%. In series [4], the inhibition of growth at 20 ppm was at least 80%.

`COc1nn(Cc2ccc(-c3noc(C(F)(F)F)n3)cc2)c(=O)n1C` [Compound B-4, 5-methoxy-4-methyl-2-[[4-[5-(trifluoromethyl)-1,2,4-oxadiazol-3-yl]phenyl]methyl]-1,2,4-triazol-3-one] showed a melting point of 129 to 130.8 °C. This molecule came in with a pest or weed control at 200 ppm in series [1] of at least 80%. Further, the pest or weed control at 200 ppm in series [2] is at least 80%. In series [3], this molecule registered a pest or weed control at 200 ppm of at least 80%. This molecule also registered an inhibition of growth at 20 ppm in series [4] of at least 80%.

As to `Cn1nnn(Cc2ccc(-c3noc(C(F)(F)F)n3)c(F)c2)c1=O` [Compound B-5, 1-[[3-fluoro-4-[5-(trifluoromethyl)-1,2,4-oxadiazol-3-yl]phenyl]methyl]-4-methyl-tetrazol-5-one], the pest or weed control at 200 ppm in series [1], in series [2] and in series [3] was at least 80% each time. This molecule had an inhibition of growth at 20 ppm in series [4] of at least 80%.

On to `Cn1nnn(Cc2ccc(-c3noc(C(F)(F)F)n3)cc2)c1=O` [Compound B-6, 1-methyl-4-[[4-[5-(trifluoromethyl)-1,2,4-oxadiazol-3-yl]phenyl]methyl]tetrazol-5-one], for which the melting point lay within 104 to 106 °C. This molecule displayed a pest or weed control at 200 ppm in series [1] of at least 80%. In series [2], this molecule registered a pest or weed control at 200 ppm of at least 80%. The pest or weed control at 200 ppm in series [3] is at least 80%. Also, the inhibition of growth at 20 ppm in series [4] is at least 80%.

Consider `CC1=CC(C)C(=O)N1Cc1ccc(-c2noc(C(F)(F)F)n2)cc1` (stereo not shown) [Compound B-7, 3,5-dimethyl-1-[[4-[5-(trifluoromethyl)-1,2,4-oxadiazol-3-yl]phenyl]methyl]-3H-pyrrol-2-one], for which the pest or weed control at 200 ppm in series [1] and in series [3] was at least 80% in each case. The molecule also showed an inhibition of growth at 20 ppm in series [4] of at least 80%.

As for `Cc1ccn(C(C)c2ccc(-c3noc(C(F)(F)F)n3)cc2)c(=O)c1` (stereo not shown) [Compound C-1], the melting point fell in the range of 117 to 120 °C. The molecule also had a pest or weed control at 200 ppm in series [1] of at least 80%. The pest or weed control at 200 ppm in series [2] was at least 80%. In series [3], the pest or weed control at 200 ppm is at least 80%. Besides, in series [4], the inhibition of growth at 20 ppm is at least 80%.

For `Cc1cc(C)n(Cc2ccc(-c3noc(C(F)(F)F)n3)cc2)c(=O)c1` [Compound C-3, 4,6-dimethyl-1-[[4-[5-(trifluoromethyl)-1,2,4-oxadiazol-3-yl]phenyl]methyl]pyridin-2-one], the pest or weed control at 200 ppm in series [2] is at least 80%.

With `Cc1cccc(=O)n1Cc1cc(F)c(-c2noc(C(F)(F)F)n2)cc1F` [Compound C-15, 1-[[2,5-difiuoro-4-[5-(trifluoromethyl)-1,2,4-oxadiazol-3-yl]phenyl]methyl]-6-methyl-pyridin-2-one], the pest or weed control at 200 ppm in series [1], in series [2] and in series [3] was at least 80% throughout. Besides, in series [4], the inhibition of growth at 20 ppm is at least 80%.

`Cc1cccc(=O)n1C(C)c1ccc(-c2noc(C(F)(F)F)n2)cc1` (stereo not shown) [Compound C-16, 6-methyl-1-[1-[4-[5-(trifluoromethyl)-1,2,4-oxadiazol-3-yl]phenyl]ethyl]pyridin-2-one]: the pest or weed control at 200 ppm in series [1] and in series [2] was at least 80% in each case. Besides, the inhibition of growth at 20 ppm in series [4] was at least 80%.

For the molecule `Cc1cccc(=O)n1Cc1cc(F)c(-c2noc(C(F)(F)F)n2)c(F)c1` [Compound C-17, 1-[[3,5-difluoro-4-[5-(trifluoromethyl)-1,2,4-oxadiazol-3-yl]phenyl]methyl]-6-methyl-pyridin-2-one], the pest or weed control at 200 ppm in series [1] and in series [2] was at least 80% in each case. Also, the inhibition of growth at 20 ppm in series [4] was at least 80%.

`Cc1ccn(CCc2ccc(-c3noc(C(F)(F)F)n3)cc2)c(=O)c1` [Compound C-18, 4-methyl-1-[2-[4-[5-(trifluoromethyl)-1,2,4-oxadiazol-3-yl]phenyl]ethyl]pyridin-2-one] displayed a melting point of 146 to 148 °C. Besides, the pest or weed control at 200 ppm in series [1] was at least 80%. This molecule displayed a pest or weed control at 200 ppm in series [2] of at least 80%. For the same molecule, in series [4], the inhibition of growth at 20 ppm was at least 80%.

Take `O=C1OCC(c2ccc(Cl)cc2Cl)=NN1Cc1ccc(-c2noc(C(F)(F)F)n2)cc1` [Compound E-1, 5-(2,4-dichlorophenyl)-3-[[4-[5-(trifluoromethyl)-1,2,4-oxadiazol-3-yl]phenyl]methyl]-6H-1,3,4-oxadiazin-2-one]: the melting point was 139.5 to 140 °C.

`Cn1nc(Cl)n(-c2ccc(-c3noc(C(F)(F)F)n3)cc2)c1=O` [Compound F-1, 5-chloro-2-methyl-4-[4-[5-(trifluoromethyl)-1,2,4-oxadiazol-3-yl]phenyl]-1,2,4-triazol-3-one]: the melting point fell in the range of 161 to 167 °C. In series [1], this molecule returned a pest or weed control at 200 ppm of at least 80%. In addition, the inhibition of growth at 20 ppm in series [4] was at least 80%.

The term pest or weed control denotes the degree to which the test organism was suppressed or injured, in per cent. One may read the inhibition of growth as the share of the control response that was lost under treatment. Low readings indicate a weak effect, high ones a strong effect. One may read the melting point as the temperature, or range, at which the solid turns liquid.

These data come from patent US11447481B2, “Microbiocidal oxadiazole derivatives” (SYNGENTA PARTICIPATIONS AG, priority 2017, dated 2022).
